{"source": "patent US20230072421A1", "about": "“TARGETED RADIOPHARMACEUTICALS FOR THE DIAGNOSIS AND TREATMENT OF PROSTATE CANCER” (Bayer AS, priority 2019, published 2023)", "assay": "Biodistribution study in LNCaP tumor-bearing mice (Th227 counted in organs)", "type": "in vivo, SCID mice", "how_it_was_run": "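SCID mice bearing testosterone pellets and subcutaneous LNCaP flank tumors (~50 mm^2) received a single intravenous dose of the radioactive compound. At set time points, n=3 animals were sacrificed, and organs were removed, weighed and counted for Th227 on a Germanium detector.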", "data": [{"smiles": "O=C([O-])CN1CCN(CC(=O)[O-])CCN(CC(=O)NCC2CCC(C(=O)NC(Cc3ccc4ccccc4c3)C(=O)NCCCCC(NC(=O)NC(CCC(=O)O)C(=O)O)C(=O)O)CC2)CCN(CC(=O)[O-])CC1.[227Th+4]", "note": "[Example 1-B-227Th, [^227Th]Thorium (3S,10S,14S)-3-[(naphthalen-2-yl)methyl]-1,4,12-trioxo-1-{(1r,4S)-4-[(2-{4,7,10-tris[(carboxy-kappaO)methyl]-1,4,7,10-tetraazacyclododecan-1-yl-kappa^4N^1,N^4,N^7,N^10}acetamido)methyl]cyclohexyl}-2,5,11,13-tetraazahexadecane-10,14,16-tricarboxylate]", "values": [{"measurement": "Th-227 in Liver", "setting": "6 hr, 500 kBq/kg, study b2999", "value": 0.19, "unit": "% ID Th-227/g organ"}, {"measurement": "Th-227 in Salivary gland", "setting": "6 hr, 500 kBq/kg, study b2999", "value": 2.84, "unit": "% ID Th-227/g organ"}, {"measurement": "Th-227 in Spleen", "setting": "6 hr, 500 kBq/kg, study b2999", "value": 0.73, "unit": "% ID Th-227/g organ"}, {"measurement": "Th-227 in Tumor", "setting": "6 hr, 500 kBq/kg, study b2999", "value": 9.80, "unit": "% ID Th-227/g organ"}, {"measurement": "Th-227 in prostate", "setting": "6 hr, 500 kBq/kg, study b2999", "value": 6.41, "unit": "% ID Th-227/g organ"}, {"measurement": "Th-227 in Blood", "setting": "24 h, 500 kBq/kg, study b2999", "value": 0.01, "unit": "% ID Th-227/g organ"}, {"measurement": "Th-227 in Femur and tibia", "setting": "24 h, 500 kBq/kg, study b2999", "value": 0.23, "unit": "% ID Th-227/g organ"}, {"measurement": "Th-227 in Kidneys", "setting": "24 h, 500 kBq/kg, study b2999", "value": 26.81, "unit": "% ID Th-227/g organ"}, {"measurement": "Th-227 in Liver", "setting": "24 h, 500 kBq/kg, study b2999", "value": 0.18, "unit": "% ID Th-227/g organ"}, {"measurement": "Th-227 in Salivary gland", "setting": "24 h, 500 kBq/kg, study b2999", "value": 1.24, "unit": "% ID Th-227/g organ"}, {"measurement": "Th-227 in Spleen", "setting": "24 h, 500 kBq/kg, study b2999", "value": 0.33, "unit": "% ID Th-227/g organ"}, {"measurement": "Th-227 in Tumor", "setting": "24 h, 500 kBq/kg, study b2999", "value": 14.45, "unit": "% ID Th-227/g organ"}, {"measurement": "Th-227 in prostate", "setting": "24 h, 500 kBq/kg, study b2999", "value": 0.00, "unit": "% ID Th-227/g organ"}, {"measurement": "Th-227 in Blood", "setting": "24 h, 1500 kBq/kg", "value": 0.02, "unit": "% ID Th-227/g organ"}, {"measurement": "Th-227 in Liver", "setting": "24 h, 1500 kBq/kg", "value": 1.05, "unit": "% ID Th-227/g organ"}, {"measurement": "Th-227 in Spleen", "setting": "24 h, 1500 kBq/kg", "value": 1.24, "unit": "% ID Th-227/g organ"}, {"measurement": "Th-227 in Tumor", "setting": "24 h, 1500 kBq/kg", "value": 9.81, "unit": "% ID Th-227/g organ"}, {"measurement": "Th-227 in bone", "setting": "24 h, 1500 kBq/kg", "value": 9.38, "unit": "% ID Th-227/g organ"}, {"measurement": "Th-227 in brain", "setting": "24 h, 1500 kBq/kg", "value": 0.00, "unit": "% ID Th-227/g organ"}, {"measurement": "Th-227 in kidney", "setting": "24 h, 1500 kBq/kg", "value": 11.30, "unit": "% ID Th-227/g organ"}, {"measurement": "Th-227 in large intestine", "setting": "24 h, 1500 kBq/kg", "value": 0.12, "unit": "% ID Th-227/g organ"}, {"measurement": "Th-227 in lung", "setting": "24 h, 1500 kBq/kg", "value": 0.50, "unit": "% ID Th-227/g organ"}, {"measurement": "Th-227 in muscle", "setting": "24 h, 1500 kBq/kg", "value": 0.16, "unit": "% ID Th-227/g organ"}, {"measurement": "Th-227 in prostate", "setting": "24 h, 1500 kBq/kg", "value": 0.00, "unit": "% ID Th-227/g organ"}, {"measurement": "Th-227 in salivary glands", "setting": "24 h, 1500 kBq/kg", "value": 0.32, "unit": "% ID Th-227/g organ"}, {"measurement": "Th-227 in small intestine", "setting": "24 h, 1500 kBq/kg", "value": 0.23, "unit": "% ID Th-227/g organ"}, {"measurement": "Th-227 in Blood", "setting": "72 h, 500 kBq/kg, study b2999", "value": 0.00, "unit": "% ID Th-227/g organ"}, {"measurement": "Th-227 in Femur and tibia", "setting": "72 h, 500 kBq/kg, study b2999", "value": 0.33, "unit": "% ID Th-227/g organ"}, {"measurement": "Th-227 in Kidneys", "setting": "72 h, 500 kBq/kg, study b2999", "value": 19.30, "unit": "% ID Th-227/g organ"}, {"measurement": "Th-227 in Liver", "setting": "72 h, 500 kBq/kg, study b2999", "value": 0.26, "unit": "% ID Th-227/g organ"}, {"measurement": "Th-227 in Salivary gland", "setting": "72 h, 500 kBq/kg, study b2999", "value": 0.73, "unit": "% ID Th-227/g organ"}, {"measurement": "Th-227 in Spleen", "setting": "72 h, 500 kBq/kg, study b2999", "value": 0.92, "unit": "% ID Th-227/g organ"}, {"measurement": "Th-227 in Tumor", "setting": "72 h, 500 kBq/kg, study b2999", "value": 21.94, "unit": "% ID Th-227/g organ"}, {"measurement": "Th-227 in prostate", "setting": "72 h, 500 kBq/kg, study b2999", "value": 0.00, "unit": "% ID Th-227/g organ"}, {"measurement": "Th-227 in Blood", "setting": "96 h, 1500 kBq/kg", "value": 0.00, "unit": "% ID Th-227/g organ"}, {"measurement": "Th-227 in Liver", "setting": "96 h, 1500 kBq/kg", "value": 1.56, "unit": "% ID Th-227/g organ"}, {"measurement": "Th-227 in Spleen", "setting": "96 h, 1500 kBq/kg", "value": 2.79, "unit": "% ID Th-227/g organ"}, {"measurement": "Th-227 in Tumor", "setting": "96 h, 1500 kBq/kg", "value": 10.02, "unit": "% ID Th-227/g organ"}, {"measurement": "Th-227 in bone", "setting": "96 h, 1500 kBq/kg", "value": 10.31, "unit": "% ID Th-227/g organ"}, {"measurement": "Th-227 in brain", "setting": "96 h, 1500 kBq/kg", "value": 0.00, "unit": "% ID Th-227/g organ"}, {"measurement": "Th-227 in kidney", "setting": "96 h, 1500 kBq/kg", "value": 1.96, "unit": "% ID Th-227/g organ"}, {"measurement": "Th-227 in large intestine", "setting": "96 h, 1500 kBq/kg", "value": 0.12, "unit": "% ID Th-227/g organ"}, {"measurement": "Th-227 in lung", "setting": "96 h, 1500 kBq/kg", "value": 0.55, "unit": "% ID Th-227/g organ"}, {"measurement": "Th-227 in muscle", "setting": "96 h, 1500 kBq/kg", "value": 0.08, "unit": "% ID Th-227/g organ"}, {"measurement": "Th-227 in prostate", "setting": "96 h, 1500 kBq/kg", "value": 0.00, "unit": "% ID Th-227/g organ"}, {"measurement": "Th-227 in salivary glands", "setting": "96 h, 1500 kBq/kg", "value": 0.42, "unit": "% ID Th-227/g organ"}, {"measurement": "Th-227 in small intestine", "setting": "96 h, 1500 kBq/kg", "value": 0.21, "unit": "% ID Th-227/g organ"}, {"measurement": "Th-227 in Blood", "setting": "168 h, 500 kBq/kg, study b2999", "value": 0.00, "unit": "% ID Th-227/g organ"}, {"measurement": "Th-227 in Femur and tibia", "setting": "168 h, 500 kBq/kg, study b2999", "value": 0.18, "unit": "% ID Th-227/g organ"}, {"measurement": "Th-227 in Kidneys", "setting": "168 h, 500 kBq/kg, study b2999", "value": 3.56, "unit": "% ID Th-227/g organ"}, {"measurement": "Th-227 in Liver", "setting": "168 h, 500 kBq/kg, study b2999", "value": 0.21, "unit": "% ID Th-227/g organ"}, {"measurement": "Th-227 in Salivary gland", "setting": "168 h, 500 kBq/kg, study b2999", "value": 0.00, "unit": "% ID Th-227/g organ"}, {"measurement": "Th-227 in Spleen", "setting": "168 h, 500 kBq/kg, study b2999", "value": 0.31, "unit": "% ID Th-227/g organ"}, {"measurement": "Th-227 in Tumor", "setting": "168 h, 500 kBq/kg, study b2999", "value": 9.80, "unit": "% ID Th-227/g organ"}, {"measurement": "Th-227 in prostate", "setting": "168 h, 500 kBq/kg, study b2999", "value": 0.00, "unit": "% ID Th-227/g organ"}, {"measurement": "Th-227 in Blood", "setting": "336 h, 500 kBq/kg, study b2999", "value": 0.00, "unit": "% ID Th-227/g organ"}, {"measurement": "Th-227 in Femur and tibia", "setting": "336 h, 500 kBq/kg, study b2999", "value": 0.25, "unit": "% ID Th-227/g organ"}, {"measurement": "Th-227 in Kidneys", "setting": "336 h, 500 kBq/kg, study b2999", "value": 0.78, "unit": "% ID Th-227/g organ"}, {"measurement": "Th-227 in Liver", "setting": "336 h, 500 kBq/kg, study b2999", "value": 0.17, "unit": "% ID Th-227/g organ"}, {"measurement": "Th-227 in Salivary gland", "setting": "336 h, 500 kBq/kg, study b2999", "value": 0.00, "unit": "% ID Th-227/g organ"}, {"measurement": "Th-227 in Spleen", "setting": "336 h, 500 kBq/kg, study b2999", "value": 0.15, "unit": "% ID Th-227/g organ"}, {"measurement": "Th-227 in Tumor", "setting": "336 h, 500 kBq/kg, study b2999", "value": 7.78, "unit": "% ID Th-227/g organ"}, {"measurement": "Th-227 in prostate", "setting": "336 h, 500 kBq/kg, study b2999", "value": 0.00, "unit": "% ID Th-227/g organ"}]}]}
